The values below come from patent US20130217634A1, “PEPTIDES ABLE TO INTERFERE WITH THE INHIBITING ACTIVITY OF MDM2/MDM4 HETERODIMER TOWARDS P53 AND USE THEREOF FOR CANCER TREATMENT” (UNIVERSITA' DEGLI STUDI DI PERUGIA, priority 2012, published 2013).

One test has as its system HCT116 p53−/− cells. The experiment in a line: Cell death by cytofluorimetric analysis (Propidium Iodide) of cells transfected with FITC tagged peptides. The test is classed as cell-based. To be noted: HCT116 p53−/− compared with wt. As for the experimental part: (§1) Cytofluorimetric analysis was carried out on HCT116 wt and p53−/− cells transfected with FITC tagged peptides and stained with Propidium Iodide (PI). Percentage of dead cells was evaluated specifically among the transfected cells (green population).
(§2) Cytofluorimetric analysis was performed on HCT116 wt and p53−/− cells transfected with FITC tagged peptides and stained with Propidium Iodide (PI). Percentage of dead cells was evaluated specifically among the transfected cells (green population).
(§3) It has been investigated whether peptides were able to enter the cell simply by addition thereof at given concentration (5 μM) to cell culture medium and analyzing for the presence thereof by confocal and fluorescence microscopy, each peptide being labeled with green fluorophore (FAM). It has been observed that peptides were detected in cells only after transfection by liposomes. Successively, the ability of peptides to disrupt the binding by MDM4 or MDM2 immunoprecipitation after peptide transfection in HCT116 cancer cell line, and detection of presence of corresponding partner in immunocomplex by western blot assay have been evaluated. Two HCT116 wild type and HCT116 p53−/− syngeneic cell lines have been used in order to understand also observed effect dependence on the presence of p53.

Another test has as its system HCT116 wt cells. Described as above. The test is classed as cell-based. The note with it: for induction of apoptotic response / cellular apoptosis: HCT116 cells transfected with peptide. As for the experimental part:
as §1, §2, §3

The next test has as its target T1, MDM4/MDM2 complex (Homo sapiens, UniProt O15151+Q00987).
T1 construct: immunoprecipitation of MDM4 has been carried out on cell lysates; endogenous in cells; host or cells: HCT116 wt and HCT116 p53-/- colon carcinoma cells
The test is described as follows: Immunoprecipitation / western blot of MDM4/MDM2 complex after peptide transfection in HCT116 cells. To be noted: HCT116 wild type and p53−/−. The test is classed as cell-based.
Excerpt: Transient transfection of peptides has been carried out in HCT116 wt and p53−/− colon carcinoma cell lines and the immunoprecipitation of MDM4 has been carried out on cell lysates in order to detect the presence of MDM2 within the immunocomplex, by western blot analysis.
Transient transfection of peptides has been carried out in HCT116 wt and p53−/− colon carcinoma cell lines and the immunoprecipitation of MDM4 has been performed on cell lysates in order to detect the presence of MDM2 within the immunocomplex by western blot analysis.
Cells have been lysed using Saito lysis modified reagent (50 mM Tris-HCl, pH 7.4, 0.15 M NaCl, 0.5% Triton-X100, 5 mM EDTA). […]
as §3, with “Two HCT116 wild type and HCT116 p53−/− syngeneic cell lines have been used in order to understand also observed effect dependence on the presence of p53.” left out
A general note: A western blot detects proteins with antibodies after separation by electrophoresis.

The next test addresses T2, p53/MDM4 binding (Homo sapiens, UniProt O15151).
T2 construct: MDM4 or MDM2 immunoprecipitation after peptide transfection in HCT116 cancer cell line; endogenous in cells; host or cells: HCT116 wt (p53+/+) colon carcinoma cells
The experiment in a line: Immunoprecipitation / western blot of p53 binding to MDM4 after peptide transfection in HCT116 cells. Type of test: cell-based. As to the method: Cells have been lysed using Saito lysis modified reagent (50 mM Tris-HCl, pH 7.4, 0.15 M NaCl, 0.5% Triton-X100, 5 mM EDTA). For p53 immunoprecipitation and BCL2 and MDM4 analysis EBC modified solution has been used (50 mM Tris-HCl, pH 7.4, 0.12 M NaCl, 0.4% NP-40, 1 mM EDTA, 1 Mm β-mercaptoethanol).
400 μg of total protein extract has been incubated with protein G (Invitrogen) for 2 hours under stirring at 4° C. in order not specific binding of proteins with said substrate can occur. Afterwards the cellular extract has been centrifuged, not specific complexes removed with precipitate and supernatant has been incubated for 16 hours with specific antibody. Successively, protein G has been added and incubated for 2 hour at 4° C. […]
as §3, with “Two HCT116 wild type and HCT116 p53−/− syngeneic cell lines have been used in order to understand also observed effect dependence on the presence of p53.” left out

In another test the target is T3, recombinant GST-MDM2 (Homo sapiens, UniProt Q00987).
T3 construct: GST (N)
The experiment in a line: In vitro ubiquitination assay of p53 performed by recombinant GST-MDM2. Type of test: biochemical. The source says: (§4) Further experiments have been performed to define the role of peptide 3 composition in its molecular and biological activity. […] Supporting these new experimental data about the importance of Isoleucine 489 and Phenylalanine 488, molecular dynamic simulations have shown that these residues engage in specific hydrophobic and aromatic interactions with MDM2 (FIG. 11). In particular, Isoleucine 489 is harbored in a hydrophobic cleft composed of Alanine 434, Isoleucine 435 and Leucine 458 of MDM2 protein. Likewise, Phenylalanine 488 forms aromatic interactions with a Histidine residue (HID-457) of MDM2 protein.

Test [1] relates to HCT116 wt and p53−/− cells. The experiment in a line: TUNEL assay of apoptosis in cells transfected with FITC tagged peptides. The test is classed as cell-based. The note with it: among transfected (green) cells. As for the experimental part: In order to specifically detect apoptotic cells, TUNEL assay was carried out in HCT116 wt and p53−/− cells transfected with FITC tagged peptides. Percentage of apoptotic cells was evaluated specifically among the transfected cells (green population).
as §4

*: point of attachment. FITC = O=C1OC2(c3ccc(O)cc3Oc3cc(O)ccc32)c2ccc(NC(=S)*)cc21; Ahx = NCCCCCC(=O)O

T3 sequence (Q00987 whole entry): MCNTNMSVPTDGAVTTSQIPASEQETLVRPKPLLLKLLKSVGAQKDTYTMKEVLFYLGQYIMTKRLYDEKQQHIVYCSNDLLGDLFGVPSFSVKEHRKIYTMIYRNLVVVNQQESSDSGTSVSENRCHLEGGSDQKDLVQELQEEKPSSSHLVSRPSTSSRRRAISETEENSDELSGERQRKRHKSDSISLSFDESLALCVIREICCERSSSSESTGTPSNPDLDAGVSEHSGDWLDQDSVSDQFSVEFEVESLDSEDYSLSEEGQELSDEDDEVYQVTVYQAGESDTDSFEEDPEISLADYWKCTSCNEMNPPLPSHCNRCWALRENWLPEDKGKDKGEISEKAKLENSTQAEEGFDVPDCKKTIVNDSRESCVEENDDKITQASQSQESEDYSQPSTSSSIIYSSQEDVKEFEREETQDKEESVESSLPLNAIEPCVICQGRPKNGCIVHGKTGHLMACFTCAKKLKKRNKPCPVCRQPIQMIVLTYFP
T1 sequence (O15151 whole entry): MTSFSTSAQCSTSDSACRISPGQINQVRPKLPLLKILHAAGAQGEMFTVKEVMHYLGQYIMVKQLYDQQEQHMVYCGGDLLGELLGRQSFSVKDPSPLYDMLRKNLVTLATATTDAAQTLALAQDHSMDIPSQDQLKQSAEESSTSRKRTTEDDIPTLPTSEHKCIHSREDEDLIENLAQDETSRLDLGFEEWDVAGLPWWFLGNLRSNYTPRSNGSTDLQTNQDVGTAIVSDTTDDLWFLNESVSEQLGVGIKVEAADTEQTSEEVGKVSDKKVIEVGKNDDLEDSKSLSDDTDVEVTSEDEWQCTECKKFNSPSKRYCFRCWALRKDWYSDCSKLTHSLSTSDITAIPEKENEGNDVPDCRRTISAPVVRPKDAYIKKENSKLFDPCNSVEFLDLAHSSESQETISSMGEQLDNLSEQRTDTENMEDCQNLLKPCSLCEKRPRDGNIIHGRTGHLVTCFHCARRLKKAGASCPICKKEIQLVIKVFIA
T1 sequence (Q00987 whole entry): as the sequence (Q00987 whole entry) above
T2 sequence (O15151 whole entry): as the sequence (O15151 whole entry) above
T2 sequence (P04637 whole entry partner): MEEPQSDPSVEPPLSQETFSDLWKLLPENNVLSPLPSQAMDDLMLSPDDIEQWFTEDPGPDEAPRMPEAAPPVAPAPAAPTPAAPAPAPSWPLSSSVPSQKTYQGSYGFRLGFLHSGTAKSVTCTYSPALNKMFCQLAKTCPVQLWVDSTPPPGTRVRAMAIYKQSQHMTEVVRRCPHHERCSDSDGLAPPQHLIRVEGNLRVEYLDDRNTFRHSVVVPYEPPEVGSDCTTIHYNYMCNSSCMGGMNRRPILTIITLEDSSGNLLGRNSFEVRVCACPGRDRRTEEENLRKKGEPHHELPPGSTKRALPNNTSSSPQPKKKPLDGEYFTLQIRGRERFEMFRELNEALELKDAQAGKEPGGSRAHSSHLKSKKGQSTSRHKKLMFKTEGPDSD

With “FITC-Ahx-KEIQLVIKVFIA-CONH2 (HELM PEPTIDE1{[O=C1OC2(c3ccc(O)cc3Oc3cc(O)ccc32)c2ccc(NC(=S)[*:2])cc21].[O=C(CCCCCN[*:1])[*:2]].K.E.I.Q.L.V.I.K.V.F.I.A.[am]}$$$$V2.0; SMILES CC[C@H](C)[C@H](NC(=O)[C@H](Cc1ccccc1)NC(=O)[C@@H](NC(=O)[C@H](CCCCN)NC(=O)[C@@H](NC(=O)[C@@H](NC(=O)[C@H](CC(C)C)NC(=O)[C@H](CCC(N)=O)NC(=O)[C@@H](NC(=O)[C@H](CCC(=O)O)NC(=O)[C@H](CCCCN)NC(=O)CCCCCNC(=S)Nc1ccc2c(c1)C(=O)OC21c2ccc(O)cc2Oc2cc(O)ccc21)[C@@H](C)CC)C(C)C)[C@@H](C)CC)C(C)C)C(=O)N[C@@H](C)C(N)=O) [Peptide 3, FITC-Ahx tagged, C-terminal amide]”, the “induced death in p53 lacking versus p53 harboring cells” value in the test with HCT116 p53−/− cells was “meaningfully lower in p53 lacking than harboring cells”. In addition, the “induction of apoptotic response / cellular apoptosis” value with HCT116 wt cells was “highly effective in inducing cellular apoptosis”. The “ability to dissociate MDM4/MDM2 complex” value with MDM4/MDM2 complex was “highly effective in dissociating said two molecules”. The “effect on binding of p53 to MDM4” value with p53/MDM4 binding was “does not dissociate p53 from MDM4”. Besides, the “inhibition of ubiquitination of p53” value with recombinant GST-MDM2 is on record as “inhibit the ubiquitinatin activity of MDM2 towards p53”. Also, in test [1], the “induction of apoptosis (TUNEL)” value is given as “induce apoptosis”.

For {FITC-Ahx}-ESSLPLNAIEPS-NH2 [Peptide 1], in the test on HCT116 wt cells, the “induction of apoptotic response / cellular apoptosis” value is on record as “induce a significant apoptotic response”. Besides, the “cell death response in comparison to the control Scramble peptide” value in the test on HCT116 wt cells (HCT116 p53+/+ cells) is listed as “significantly higher in comparison to the control Scramble peptide”. At MDM4/MDM2 complex, the “ability to dissociate MDM4/MDM2 complex” value is “suitable to dissociate said two proteins”. On p53/MDM4 binding, the “effect on binding of p53 to MDM4” value is listed as “able to preserve the binding of p53 to MDM4”.

For “AIKIFVKVLEIQ (peptide composed with the same aminoacids of SEQ ID NO3 but arranged in different order) [Peptide SC3B]”, the “inhibition of ubiquitination of p53” value with recombinant GST-MDM2 is “ineffective”.

With “VQEAFKLIKIVI (peptide composed with the same aminoacids of SEQ ID NO3 but arranged in different order) [Peptide SC3A]”, the “inhibition of ubiquitination of p53” value in the test with recombinant GST-MDM2 was “ineffective”.

With “KEIQLVIKVAEA (MDM4 sequence of the interaction domain between MDM4 and MDM2 from aa 479 to aa 490 of MDM4 in which FI in positions 10 and 11 of said sequence has been substituted with AE) [Peptide 3D, reference compound]”, the “inhibition of ubiquitination of p53” value with recombinant GST-MDM2 is on record as “completely ineffective”. Also, the “induction of apoptosis (TUNEL)” value in test [1] was “completely ineffective”.
